Conditions: amide bond; 32-membered ring

Substance	ring closure, isolated yield [%]
Benzyl tert-butyl ((7R,11S,19aS,26R,30S,38aS)-11-((S)-sec-butyl)-30-isopropyl-12,15,31,34-tetramethyl-6,10,13,16,19,25,29,32,35,38-decaoxohexatriacontahydro-2H,6H-dipyrido[1,2-a:1′,2′-q][1,4,7,10,13,17,20,23,26,29]decaazacyclodotriacontine-7,26-diyl)dicarbamate	75
Tert-butyl (4-nitrobenzyl) ((7R,11S,19aS,26R,30S,38aS)-11,30-diisopropyl-12,15,31,34-tetramethyl-6,10,13,16,19,25,32,35,38-nonaoxodotriacontahydro-2H,6H,10H,25H-dipyrido[2,1-b1: 2′,1′-l][1,17]dioxa[4,7,10,13,20,23,26,29]octaazacyclodotriacontine-7,26-diyl)dicarbamate	50
Benzyl tert-butyl ((7R,11S,19aS,26R,30S,38aS)-11,30-dicyclohexyl-12,15,31,34-tetramethyl-6,10,13,16,19,25,29,32,35,38-decaoxohexatriacontahydro-2H,6H-dipyrido[1,2-a:1′,2′-q][1,4,7,10,13,17,20,23,26,29]decaazacyclodotriacontine-7,26-diyl)dicarbamate	72
Benzyl tert-butyl ((5aS,9R,15aS,24S,28R,34aS)-24-isopropyl-20,23,39-trimethyl-6,10,16,19,22,25,29,35,38,41-decaoxotetracontahydro-1H,12H-azepino[1,2-j]dipyrido[1,2-a:1′,2′-q][1,4,7,10,13,17,20,23,26,29]decaazacyclodotriacontine-9,28-diyl)dicarbamate	22
Benzyl tert-butyl ((7R,11S,19aS,26R,30S,38aS)-11,15,30,34-tetraisopropyl-12,31-dimethyl-6,10,13,16,19,25,29,32,35,38-decaoxohexatriacontahydro-2H,6H-dipyrido[1,2-a:1′,2′-q][1,4,7,10,13,17,20,23,26,29]decaazacyclodotriacontine-7,26-diyl)dicarbamate	94
Benzyl tert-butyl ((7R,11S,19aS,26R,30S,38aS)-11,30-diisopropyl-12,15,31,34-tetramethyl-6,10,13,16,19,25,29,32,35,38-decaoxotetratriacontahydro-2H,6H,10H-dipyrido[2,1-b1: 2′,1′-l][1]oxa[4,7,10,13,17,20,23,26,29]nonaazacyclodotriacontine-7,26-diyl)dicarbamate	63
Benzyl tert-butyl ((7R,11S,19aS,26R,30S,38aS)-11,30-di((S)-sec-butyl)-12,15,31,34-tetramethyl-6,10,13,16,19,25,29,32,35,38-decaoxohexatriacontahydro-2H,6H-dipyrido[1,2-a:1′,2′-q][1,4,7,10,13,17,20,23,26,29]decaazacyclodotriacontine-7,26-diyl)dicarbamate	90
Di-tert-butyl ((7R,8R,11S,19aS,26R,27R,30S,38aS)-11,30-diisopropyl-8,12,15,27,31,34-hexamethyl-6,10,13,16,19,25,29,32,35,38-decaoxodotriacontahydro-2H,6H,10H,25H-dipyrido[2,1-b1: 2′,1′-l][1,17]dioxa[4,7,10,13,20,23,26,29]octaazacyclodotriacontine-7,26-diyl)dicarbamate	50
Tert-butyl (4-nitrobenzyl) ((7R,11S,19aS,26R,30S,38aS)-11,30-diisopropyl-12,15,31,34-tetramethyl-6,13,16,19,25,29,32,35,38-nonaoxotetratriacontahydro-2H,6H,10H-dipyrido[2,1-b1: 2′,1′-l][1]oxa[4,7,10,13,17,20,23,26,29]nonaazacyclodotriacontine-7,26-diyl)dicarbamate	68
Benzyl tert-butyl ((7R,8R,11S,19aS,26R,30S,38aS)-11,30-di((S)-sec-butyl)-8,12,15,31,34-pentamethyl-6,10,13,16,19,25,29,32,35,38-decaoxotetratriacontahydro-2H,6H,10H-dipyrido[2,1-b1: 2′,1′-l][1]oxa[4,7,10,13,17,20,23,26,29]nonaazacyclodotriacontine-7,26-diyl)dicarbamate	71
Benzyl tert-butyl ((7′R,19a'S,26′R,30'S,38a'S)-30′-isopropyl-12′,15′,31′,34′-tetramethyl-6′,10′,13′,16′,19′,25′,29′,32′,35′,38′-decaoxotetratriacontahydro-2′H,6′H,12′H-spiro[cyclopropane-1,11′-dipyrido[1,2-a:1′,2′-q][1,4,7,10,13,17,20,23,26,29]decaazacyclodotriacontine]-7′,26′-diyl)dicarbamate	48
Benzyl tert-butyl ((7R,10aS,22aS,29R,32aS,44aS)-6,10,16,22,28,32,38,44-octaoxotetracontahydro-2H,19H-tetrapyrido[1,2-a1: 1′,2′-d: 1″,2″-k: 1′″,2′″-t][1,17]dioxa[4,7,11,14,20,23,27,30]octaazacyclodotriacontine-7,29-diyl)dicarbamate	44
Benzyl tert-butyl ((7R,11S,19aS,26R,30S,38aS)-12,31-diethyl-11,30-diisopropyl-15,34-dimethyl-6,10,13,16,19,25,29,32,35,38-decaoxohexatriacontahydro-2H,6H-dipyrido[1,2-a:1′,2′-q][1,4,7,10,13,17,20,23,26,29]decaazacyclodotriacontine-7,26-diyl)dicarbamate	40
Benzyl tert-butyl ((7R,10aS,23aS,30R,33aS,46aS)-19,42-dimethyl-6,10,17,20,23,29,33,40,43,46-decaoxotetratetracontahydro-6H,29H-bis(azepino)[1,2-j:1′,2′-z]dipyrido[1,2-a:1′,2′-q][1,4,7,10,13,17,20,23,26,29]decaazacyclodotriacontine-7,30-diyl)dicarbamate	74
Benzyl tert-butyl ((13S,16R,19aS,32S,35R,38aS)-13,32-diisopropyl-8,14,27,33-tetramethyl-6,9,12,15,19,25,28,31,34,38-decaoxohexatriacontahydro-2H,6H-dipyrido[2,1-c: 2′,1′-s][1,4,7,10,13,17,20,23,26,29]decaazacyclodotriacontine-16,35-diyl)dicarbamate	57
di-tert-butyl ((7R,11S,19aS,26R,30S,38aS)-11,30-diisopropyl-12,15,31,34-tetramethyl-6,10,13,16,19,25,29,32,35,38-decaoxohexatriacontahydro-2H,6H-dipyrido[1,2-a:1′,2′-q][1,4,7,10,13,17,20,23,26,29]decaazacyclodotriacontine-7,26-diyl)dicarbamate	34
Benzyl tert-butyl ((3aS,7R,13aS,22S,26R,32aS)-22-isopropyl-18,21,37-trimethyl-4,8,14,17,20,23,27,33,36,39-decaoxooctatriacontahydro-1H,10H-dipyrido[1,2-a:1′,2′-q]pyrrolo[1,2-j][1,4,7,10,13,17,20,23,26,29]decaazacyclodotriacontine-7,26-diyl)dicarbamate	62
Di-tert-butyl ((7R,11S,19aS,26R,30S,38aS)-11,30-diisopropyl-9,12,15,28,31,34-hexamethyl-6,10,13,16,19,25,29,32,35,38-decaoxohexatriacontahydro-2H,6H-dipyrido[1,2-a:1′,2′-q][1,4,7,10,13,17,20,23,26,29]decaazacyclodotriacontine-7,26-diyl)dicarbamate	65
Di-tert-butyl ((7R,11S,19aS,26R,30S,38aS)-11,30-diisopropyl-12,15,31,34-tetramethyl-6,10,13,16,19,25,29,32,35,38-decaoxotetratriacontahydro-2H,6H,10H-dipyrido[2,1-b1: 2′,1′-l][1]oxa[4,7,10,13,17,20,23,26,29]nonaazacyclodotriacontine-7,26-diyl)dicarbamate	86
Benzyl tert-butyl ((4aS,8R,14aS,23S,27R,33aS)-23-isopropyl-19,22,38-trimethyl-5,9,15,18,21,24,28,34,37,40-decaoxotetracontahydro-11H-tripyrido[1,2-a:1′,2′-j:1″,2″-q][1,4,7,10,13,17,20,23,26,29]decaazacyclodotriacontine-8,27-diyl)dicarbamate	64
Benzyl tert-butyl ((7R,11S,19aS,26R,30S,38aS)-11,30-diisopropyl-12,31-dimethyl-6,10,13,16,19,25,29,32,35,38-decaoxo-15,34-dipropylhexatriacontahydro-2H,6H-dipyrido[1,2-a:1′,2′-q][1,4,7,10,13,17,20,23,26,29]decaazacyclodotriacontine-7,26-diyl)dicarbamate	85
Benzyl tert-butyl ((7R,11S,19aS,26R,30S,38aS)-11-isopropyl-12,15,31,34-tetramethyl-6,10,13,16,19,25,29,32,35,38-decaoxo-30-phenylhexatriacontahydro-2H,6H-dipyrido[1,2-a:1′,2′-q][1,4,7,10,13,17,20,23,26,29]decaazacyclodotriacontine-7,26-diyl)dicarbamate	26
Benzyl tert-butyl ((7R,11S,19aS,26R,30S,38aS)-15,34-diethyl-11,30-diisopropyl-12,31-dimethyl-6,10,13,16,19,25,29,32,35,38-decaoxohexatriacontahydro-2H,6H-dipyrido[1,2-a:1′,2′-q][1,4,7,10,13,17,20,23,26,29]decaazacyclodotriacontine-7,26-diyl)dicarbamate	68
Benzyl tert-butyl ((7R,19aS,26R,30S,38aS)-30-isopropyl-11,11,12,15,31,34-hexamethyl-6,10,13,16,19,25,29,32,35,38-decaoxohexatriacontahydro-2H,6H-dipyrido[1,2-a:1′,2′-q][1,4,7,10,13,17,20,23,26,29]decaazacyclodotriacontine-7,26-diyl)dicarbamate	37
